PMC10223552 (Pharmaceuticals, 2023)
“Also recorded” adds a separate entry of the source.

Columns and labels:
[1] = tested on: MCF-7 breast cancer cells; assay: Apoptosis/necrosis detection (Annexin V-FITC/PI, image cytometry), MCF-7; assay type: cell-based, human; settings: MCF-7, IC50 concentration, 48 h
Protocol: The MTT test results prompted further study. Staining with propidium iodide and Annexin V-FITC was performed to distinguish apoptotic from necrotic cell death.
Apoptosis was analyzed using the NucleoCounter® NC-3000™ (Chemometec Inc., Lillerød, Denmark) according to the manufacturer’s protocol using Annexin V from Biotium (Fremont, CA, USA). MCF-7 and MDA-MB-231 cells were seeded into 6-well plates (2 × 10^5 cells/mL) and cultured until 70–80% confluence was reached. […] Scatter plots were used to determine the proportion of healthy cells (Annexin V-negative/PI-negative cells), early apoptotic cells (Annexin V-positive/PI-negative cells), late apoptotic cells (Annexin V-positive/PI-positive cells), and necrotic cells (Annexin V-negative/PI-positive cells). Data were derived from three independent experiments with three replicates.

gpH1R = molecular target: T1, gpH1R (Cavia porcellus, UniProt P31389); assay: Ex vivo assay for histamine H1R antagonists on guinea pig ileum stimulated by histamine (+atropine); settings: gpH1R +Atropine pA2 ± sem, isolated guinea pig ileum, vs histamine, 0.05 µM atropine
T1 construct: from tissue; host or cells: isolated distal ileum of male guinea pigs
T1 sequence (P31389 whole entry): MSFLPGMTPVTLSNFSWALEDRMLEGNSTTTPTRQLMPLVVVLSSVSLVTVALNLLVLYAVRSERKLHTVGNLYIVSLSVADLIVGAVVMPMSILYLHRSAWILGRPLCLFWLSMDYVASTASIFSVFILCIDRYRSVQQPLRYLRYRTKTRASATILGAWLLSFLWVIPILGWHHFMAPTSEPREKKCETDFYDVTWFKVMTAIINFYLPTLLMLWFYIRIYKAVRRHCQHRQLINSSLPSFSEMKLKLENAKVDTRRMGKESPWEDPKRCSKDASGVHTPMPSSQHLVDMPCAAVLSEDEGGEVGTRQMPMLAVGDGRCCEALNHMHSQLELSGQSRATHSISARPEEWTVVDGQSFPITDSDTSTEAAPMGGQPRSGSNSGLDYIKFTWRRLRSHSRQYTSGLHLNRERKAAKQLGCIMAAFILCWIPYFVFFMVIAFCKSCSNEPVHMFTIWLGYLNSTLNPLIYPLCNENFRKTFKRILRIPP
Protocol: A second histamine receptor located in the guinea pig ileum is H1R. The antagonistic effect at H1R was measured on the isolated guinea pig ileum stimulated to contractions by histamine. To eliminate the impact of muscarinic receptors located on the tested tissue, 0.05 µM of atropine was added to the Krebs buffer.
Ex vivo assay for histamine H3R and H1R antagonists were measured on the isolated guinea pig ileum stimulated to contractions by histamine. The pA2-values were calculated according to Arunlakshana and Schild. The radioligand-displacement binding assay was performed in membrane fractions of HEK-293 cells stably expressing hH3R. Cell cultivation and membrane preparation was performed according to Kottke et al.. The Ki values were calculated from the IC50 values using the Cheng–Prusoff equation [37]. The statistical calculations were performed on –log(Ki). […] The inhibitory activities of novel ADS compounds were assessed in spectrophotometric Ellman’s assay using AChE from electric eel (eeAChE) and BuChE from horse serum (eqBuChE).
3.2 Ex vivo assay for histamine H1R receptor antagonists on guinea pig ileum.
Male guinea pigs, weighing 300-400 g were euthanized by a blow to the neck. A 20-30 cm length of the distal ileum, apart from the terminal 5 cm was rapidly removed and placed in phosphate buffer at room temperature (pH […]
Aldrich, St. Louis, MO, USA) (1·10-6 mol/L). The intraluminal content was rinsed and the isolated intestine was cut into 1.5-2 cm segments. The preparations were mounted isotonically in a 20 mL organ bath filled with Krebs […]
a constant load of 0.5 g (Hugo Sachs Hebel-Messvorsatz (Tl-2)/HF-modem; Hugo Sachs Elektronik, Hugstetten, Germany) connected to a pen recorder (Kipp & Zonen BD41, Delft, Holland). During an equilibration period of 40 min, the Krebs buffer was changed every 10 min. The first cumulative concentration-response curve was determined to histamine (Sigma-Aldrich, St. Louis, MO, USA) (10 nM - 10 mM) at increasing concentration spaced by three or 3.3-fold. The second to the fourth (or fifth) curve was measured in the presence of an increasing concentration of antagonist (incubation time 10 min). The pA2-values were calculated according to Arunlakshana and Schild. [Br J Pharmacol Chemother. […] Statistical analysis was carried out with the Students’ t-test. In all tests, a p<0.05 was considered statistically significant. The pA2 values were compared with the affinity

CYP3A4 = molecular target: T2, CYP3A4 (Homo sapiens, UniProt P08684); assay: Influence on CYP3A4 activity (P450-Glo); assay type: in vitro ADME
T2 construct: purchased Promega (Madison, WI, USA)
T2 sequence (P08684 whole entry): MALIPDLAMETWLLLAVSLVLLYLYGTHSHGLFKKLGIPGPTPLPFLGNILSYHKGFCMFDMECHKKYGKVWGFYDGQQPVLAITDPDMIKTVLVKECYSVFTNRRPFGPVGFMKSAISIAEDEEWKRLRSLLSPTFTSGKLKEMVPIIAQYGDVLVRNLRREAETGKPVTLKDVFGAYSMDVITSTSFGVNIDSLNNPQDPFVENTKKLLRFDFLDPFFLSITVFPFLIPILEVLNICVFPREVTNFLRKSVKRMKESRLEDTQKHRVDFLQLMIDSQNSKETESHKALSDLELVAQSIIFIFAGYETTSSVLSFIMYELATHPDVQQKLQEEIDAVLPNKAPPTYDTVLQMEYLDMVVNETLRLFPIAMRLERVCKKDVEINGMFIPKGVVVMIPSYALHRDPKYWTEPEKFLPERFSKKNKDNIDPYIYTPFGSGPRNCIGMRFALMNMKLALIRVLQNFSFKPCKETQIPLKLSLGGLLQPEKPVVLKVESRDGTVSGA
Protocol: (§1) Treatment of elderly patients who suffer from cancer or degenerative CNS diseases usually requires the use of more than one medication at the same time, which can result in a greater risk of DDIs. […] The results were compared to the selective CYP3A4 inhibitor ketoconazole and selective CYP2D6 inhibitor quinidine.
(§2) All assays and protocols used for the determination of compound ADME-Tox parameters were described previously. In brief, the metabolic stability assay was performed on HLMs, purchased from Sigma-Aldrich (St. Louis, MO, USA). ADS10310 was incubated with HLMs for 120 min in Tris buffer (pH = 7.4) at 37 °C. NADPH regeneration system Promega (Madison, WI, USA) was added to initiate whereas methanol was added to terminate the reaction. The LC/MS analyses of the centrifuged reaction mixture were obtained on Waters ACQUITY™ TQD system (Waters, Milford, CT, USA). The in silico prediction of most probable sites of ADS10310 metabolism was performed by MetaSite 6.0.1 software (Molecular Discovery Ltd., Hertfordshire, UK). […] The results were calculated from two independent experiments.
(§3) The luminescent signal and the absorbances (measured at 490 nm) in DDIs and safety assays were measured by using an EnSpire PerkinElmer microplate reader (Waltham, MA, USA). […]

CYP2D6 = molecular target: T3, CYP2D6 (Homo sapiens, UniProt P10635); assay: Influence on CYP2D6 activity (P450-Glo); assay type: in vitro ADME
T3 construct: purchased Promega (Madison, WI, USA)
T3 sequence (P10635 whole entry): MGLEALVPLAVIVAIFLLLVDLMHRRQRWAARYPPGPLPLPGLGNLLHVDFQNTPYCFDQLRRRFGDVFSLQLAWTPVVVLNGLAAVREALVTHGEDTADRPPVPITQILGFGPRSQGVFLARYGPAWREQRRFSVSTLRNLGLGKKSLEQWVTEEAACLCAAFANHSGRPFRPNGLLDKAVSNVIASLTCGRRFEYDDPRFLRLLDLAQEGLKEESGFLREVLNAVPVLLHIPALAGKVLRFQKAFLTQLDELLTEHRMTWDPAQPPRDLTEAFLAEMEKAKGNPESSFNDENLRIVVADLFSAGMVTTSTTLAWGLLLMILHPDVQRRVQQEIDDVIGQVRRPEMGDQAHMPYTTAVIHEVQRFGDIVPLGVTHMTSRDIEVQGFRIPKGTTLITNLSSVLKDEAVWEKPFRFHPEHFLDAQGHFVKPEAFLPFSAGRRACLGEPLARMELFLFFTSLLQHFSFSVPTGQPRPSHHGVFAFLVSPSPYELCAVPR
Protocol: as §1, §2, §3

hepatoma HepG2 cell line = assay: Hepatotoxicity assay (MTS), HepG2; assay type: cell-based
Protocol: The cells were grown in Minimum Essential Media (MEM) supplemented with 10% fetal bovine serum (FBS) in a humidified atmosphere of 5% CO2 to reach 70–80% confluency. The cells were seeded next into 96-well plates at a concentration of 0.7 × 10^4 cells/well. […] The 1% DMSO in culture media was used as the vehicle control.

SMILES | early apoptotic cells (Q1lr) [1] | late apoptotic cells (Q1ur) [1] | Kb (gpH1R) | influence on CYP3A4 activity (CYP3A4) | CYP2D6 inhibition (in words) (CYP2D6) | decrease of CYP2D6 activity (CYP2D6; lowest tested dose of 0.1 µM) | decrease of hepatoma HepG2 cell viability (hepatoma HepG2 cell line; 100 µM, 72 h) | HepG2 cell viability at concentrations up to 50 µM (hepatoma HepG2 cell line; 72 h) | hepatotoxic activity (in words) (hepatoma HepG2 cell line; HepG2, 72 h, 0.01-100 µM)
N=C(N)N(CCCCN1CCN(CCCCCCCOc2ccccc2)CC1)Cc1ccccc1 [ADS1017] | 2% | 38% | – | – | – | – | – | – | –
Cl.Cl.N=C(NCCCCc1ccc(Cl)cc1)NCCCCN1CCCCC1 [ADS10310] | – | – | 339 nM | did not show any influence on CYP3A4 activity | strongly inhibited CYP2D6; also recorded: strong inhibitor of CYP2D6 activity | more than 50% | ~ 40% | no decrease | weak hepatotoxic activity
